According to patent US20170189485A1, “MODULATION OF ESTROGEN RECEPTOR-RELATED RECEPTOR GAMMA (ERR GAMMA) AND USES THEREFOR” (Salk Institute for Biological Studies, priority 2011, published 2017):
Entries after “also recorded” stand apart in the source; their conditions may differ.

Experiments:
[1] = target: T1, ERRγ (Homo sapiens, UniProt P62508); conditions: cited from earlier work
T1 sequence (P62508 1-458): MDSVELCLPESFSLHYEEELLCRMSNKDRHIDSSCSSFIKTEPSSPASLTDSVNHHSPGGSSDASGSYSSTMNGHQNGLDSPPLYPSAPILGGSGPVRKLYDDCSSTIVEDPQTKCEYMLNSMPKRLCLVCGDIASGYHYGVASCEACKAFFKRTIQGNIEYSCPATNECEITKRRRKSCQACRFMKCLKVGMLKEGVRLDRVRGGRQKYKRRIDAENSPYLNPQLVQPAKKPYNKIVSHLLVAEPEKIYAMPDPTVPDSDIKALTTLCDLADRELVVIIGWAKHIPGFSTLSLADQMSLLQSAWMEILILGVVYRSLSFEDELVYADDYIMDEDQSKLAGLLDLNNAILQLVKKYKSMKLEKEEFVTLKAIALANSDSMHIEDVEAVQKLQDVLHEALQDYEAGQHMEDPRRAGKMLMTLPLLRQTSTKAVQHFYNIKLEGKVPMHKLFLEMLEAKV

[2] = target: T2, ERRβ (Homo sapiens, UniProt O95718); conditions: cited from earlier work
T2 sequence (O95718 1-433): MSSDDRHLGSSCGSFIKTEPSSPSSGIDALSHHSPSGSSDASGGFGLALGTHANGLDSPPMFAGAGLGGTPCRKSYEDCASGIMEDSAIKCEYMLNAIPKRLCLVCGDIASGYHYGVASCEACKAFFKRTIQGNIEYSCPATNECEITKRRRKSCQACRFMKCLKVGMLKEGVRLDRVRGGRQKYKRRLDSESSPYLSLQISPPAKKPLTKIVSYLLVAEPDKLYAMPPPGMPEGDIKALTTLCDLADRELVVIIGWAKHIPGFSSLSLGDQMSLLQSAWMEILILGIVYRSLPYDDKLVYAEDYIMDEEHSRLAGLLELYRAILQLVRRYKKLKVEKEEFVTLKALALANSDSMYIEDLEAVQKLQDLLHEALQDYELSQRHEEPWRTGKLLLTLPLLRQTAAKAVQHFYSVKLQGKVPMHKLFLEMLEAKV

[3] = test system: type II muscle; assay: AICAR treatment of mice, SDH staining of muscle cryo-sections; assay type: in vivo; conditions: AICAR 500 mg/kg/day for 4 weeks, intra-peritoneally, male C57Bl/6J mice
Protocol: Drug treatment. Male C57Bl/6J mice (8 weeks old) were intra-peritoneally injected with vehicle or AICAR (500 mg/kg/day), as previously described (Narkar et al., 2008).
Succinate Dehydrogenase (SDH) Staining. SDH staining was performed on […] cryo-sections of gastrocnemius. Briefly, WT and transgenic sections were incubated at 37° C. for 10 min in substrate buffer [0.2M Phosphate buffer containing sodium succinate (250 mg/10 ml) and NBT (10 mg/10 ml)]. Following incubation, sections were washed three times with water following by two washes each with increasing and decreasing concentrations of acetone (30%, 60%, 90%). Finally, the sections were washed three times with water and mounted in an aqueous mounting media.

[4] = test system: AMPK; conditions: dose 500 mg/kg/day; cited from earlier work
[5] = dose 500 mg/kg/day; cited from earlier work

CCN(CC)c1ccc(C=NNC(=O)c2ccc(O)cc2)cc1 (stereo in doubt) [GSK9089, N-[(E)-[4-(diethylamino)phenyl]methylideneamino]-4-hydroxybenzamide]
agonist of ERRγ [1]: agonists
agonist of ERRβ [2]: agonists

Nc1ccc(C(=O)N/N=C/c2ccc(/N=N/c3ccccc3)cc2)cn1 [E6]
selectivity for ERRγ over ERRα and β ([1]; screening assay of Kim et al. 2009): selective for ERRγ but not ERRα and β

CC(C)c1ccc(/C=N/NC(=O)c2ccc(O)cc2)cc1 [GSK4716]
agonist of ERRβ [2]: agonists

NC(=O)c1ncn([C@@H]2O[C@H](CO)[C@@H](O)[C@H]2O)c1N [AICAR]
aerobic transformation of skeletal muscle (SDH staining) [3]: able to direct aspects of skeletal muscle transformation in a fashion similar to ERRγ; also recorded: triggers aerobic transformation of type II muscle
stimulation of AMPK in anaerobic muscle [4]: stimulate AMPK in anaerobic muscle
aerobic performance [5]: improve aerobic performance
